In article PMC7450046, “Making of water soluble curcumin to potentiate conventional antimicrobials by inducing apoptosis-like phenomena among drug-resistant bacteria” (Scientific Reports, 2020):
Values after ≈ are worked out from the molar mass of the structure shown. Like-named read-outs stand apart in the source and are kept apart here. Each block holds one molecule with its values, some of them ahead of it.

Legend:
[1] = test system: Escherichia coli (507/2019); experiment: MIC/MBC, broth micro-dilution; format: cell-based; conditions: for MIC: 18 h
Description: (§1) The minimum inhibitory concentration of sCur was determined by the broth microdilution method as described earlier with minor modifications.
(§2) Briefly, Staphylococcus aureus, Staphylococcus epidermidis, Klebsiella pneumoniae, Escherichia coli, and Pseudomonas aeruginosa were grown in 10 ml BHI broth aerobically for 18 h. Bacterial culture (500 µl) was then diluted to 1.5 ml fresh BHI broth. […] The stock was diluted in a series of two-fold dilutions ranging from 0.5 to 512 µg/ml in sterile BHI broth in microtiter wells. Each well of the 96-well microtiter plate was then inoculated with 190 µl of standardized cell suspension (10^5 CFU/ml) and incubated at 37 °C for next 18 h along with the 20 µl sCur suspension. The MIC was defined as the lowest concentration of sCur at which no obvious growth was observed.

[2] = test system: Klebsiella pneumoniae (10,825/2019); experiment: MIC/MBC, broth micro-dilution; format: cell-based; conditions: for MIC: 18 h
Description: as §1, §2

[3] = test system: Pseudomonas aeruginosa (2,412/2019); experiment: MIC/MBC, broth micro-dilution; format: cell-based; conditions: for MIC: 18 h
Description: as §1, §2

[4] = test system: Staphylococcus aureus (MRSA, 2,862/2019); experiment: MIC/MBC, broth micro-dilution; format: cell-based; conditions: for MIC: 18 h
Description: as §1, §2

[5] = test system: Escherichia coli (ATCC25922); experiment: MIC/MBC, broth micro-dilution; format: cell-based; conditions: for MIC: ATCC25922, 18 h
Description: as §1
(§3) Briefly, Staphylococcus aureus, Staphylococcus epidermidis, Klebsiella pneumoniae, Escherichia coli, and Pseudomonas aeruginosa were grown in 10 ml BHI broth aerobically for 18 h. Bacterial culture (500 µl) was then diluted to 1.5 ml fresh BHI broth. The sCur stock solution (1,024 µg/ml) was used for the study. The stock was diluted in a series of two-fold dilutions ranging from 0.5 to 512 µg/ml in sterile BHI broth in microtiter wells. Each well of the 96-well microtiter plate was then inoculated with 190 µl of standardized cell suspension (10^5 CFU/ml) and incubated at 37 °C for next 18 h along with the 20 µl sCur suspension. The MIC was defined as the lowest concentration of sCur at which no obvious growth was observed. Positive controls were having either ciprofloxacin or meropenem (for gram positive and gram negative respectively) while the sterile broth served as negative control and all the experiments were performed in triplicate.

[6] = test system: Klebsiella pneumoniae (ATCC700603); experiment: MIC/MBC, broth micro-dilution; format: cell-based; conditions: for MIC: ATCC700603, 18 h
Description: as §1, §3

[7] = test system: Pseudomonas aeruginosa (ATCC25619); experiment: MIC/MBC, broth micro-dilution; format: cell-based; conditions: for MIC: ATCC25619, 18 h
Description: as §1, §3

[8] = test system: Staphylococcus aureus (ATCC29213); experiment: MIC/MBC, broth micro-dilution; format: cell-based; conditions: for MIC: ATCC29213, 18 h
Description: as §1, §3

[9] = test system: Staphylococcus epidermidis (ATCC35984); experiment: MIC/MBC, broth micro-dilution; format: cell-based; conditions: for MIC: ATCC35984, 18 h
Description: as §1, §3

Klebsiella pneumoniae [10] = experiment: DPH flow cytometry, membrane dynamics; format: cell-based; conditions: 256 µg/ml
Klebsiella pneumoniae [11] = experiment: DiSC3-5 flow cytometry, membrane depolarization; conditions: 256 µg/ml
[12] = test system: Gram-positive and Gram-negative MDR isolates; experiment: MIC, broth micro-dilution, summary for MDR isolates; format: cell-based
Description: as §1, §2

[13] = test system: Escherichia coli (507/2019); experiment: Modified MIC in combination, checkerboard titration; format: cell-based
Description: (§4) Serial dilutions of with these antibiotics were mixed in cation-adjusted Muller Hinton broth. The inoculum was prepared from the overnight grown colonies on MHA. The final bacterial concentration after inoculation was […].

[14] = test system: Klebsiella pneumoniae (10,825/2019); experiment: as above; format: cell-based
Description: as §4

[15] = test system: Pseudomonas aeruginosa (2,412/2019); experiment: as above; format: cell-based
Description: as §4

[16] = test system: Staphylococcus aureus (MRSA, 2,862/2019); experiment: microbe, parasite or virus in culture
Description: as §4

[17] = test system: K. pneumoniae clinical isolate; experiment: DPH steady-state fluorimetry, membrane dynamics; format: cell-based, Klebsiella pneumoniae; conditions: vancomycin alone; sCur at MIC alone 120 min; 8 µg/ml sCur with 16 µg/ml vancomycin 60 min; untreated 93.44 ± 2.646
Description: (§5) We utilized the previously described method. Multidrug-resistant clinical isolates of Staphylococcus aureus, Staphylococcus epidermidis, Klebsiella pneumoniae, Escherichia coli, and Pseudomonas aeruginosa were treated with MIC concentration of sCur, vancomycin, and in combination (here data of only Klebsiella pneumoniae is shown). We incubated the treated cells for 120 min with shaking (100 rpm) at 37 °C, with subsequent harvesting. The pellet was re-suspended and re-pelleted. We fixed the pellet with 0.4% paraformaldehyde with subsequent resuspension in PBS. We later on incubated the re-suspended cells with 0.5 mM 1, 6-diphenyl-1, 3, 5-hexatriene (DPH) at 37 °C for 60 min, pelleted and washed thrice with PBS. The fluorescence intensity was monitored spectrophotometrically employing Synergy H1 Hybrid Multi-Mode Reader at 350 nm (excitation) and 425 nm (emission).

MRSA clinical isolate = experiment: DPH steady-state fluorimetry, membrane dynamics; format: cell-based, Staphylococcus aureus; conditions: vancomycin alone; 8 µg/ml sCur with 16 µg/ml vancomycin 60 min; untreated 89.86 ± 2.07
Description: as §5

[18] = test system: multi-drug resistant K. pneumoniae and S. aureus isolates; experiment: DiSC3-5 steady-state fluorimetry, membrane depolarization; format: cell-based, Klebsiella pneumoniae and Staphylococcus aureus; conditions: 8 µg/ml sCur with 16 µg/ml vancomycin, 120 min; vancomycin alone; untreated 18.67 ± 2.082
Klebsiella pneumoniae [19] = experiment: DCFH-DA flow cytometry, ROS production; format: cell-based; conditions: single agents, time not stated; untreated 0.1%
[20] = test system: S. aureus and K. pneumoniae cells; experiment: Hydroxyl radical estimation with HPF dye; format: cell-based, Staphylococcus aureus and Klebsiella pneumoniae; conditions: one hour treatment, compared to untreated cells
Description: The fluorescent reporter dye 3′-(p-hydroxyphenyl) fluorescein (HPF) was used for […] free radical detection as described previously. Overnight cultures were diluted 1:250 with 25 ml of BHI broth in 250 ml flasks and incubated at 37 °C, with shaking (200 rpm). Cells were grown until they reached the OD600 ~ 0.3. Five hundred microliters sample was taken from the flasks and transferred to an 8-well plate for treatments. […] The supernatant was exchanged with phosphate buffered saline supplemented with […] HPF with incubation in the dark at room temperature for 15 min and re-pelleted by centrifugation at 10,000 rpm. The supernatant was removed and replaced with 1 × PBS for fluorimetry measurements.

[21] = antibiotic with native curcumin (8 µg/ml)

MIC ([1]; read-out: MIC): 512 µg/mL (≈ 1390 µM)
MIC ([2]; read-out: MIC): 512 µg/mL (≈ 1390 µM)
MIC ([3]; read-out: MIC): ≥ 1020 µg/mL
MIC ([4]; read-out: MIC): 256 µg/mL (≈ 695 µM)
MIC ([5]; read-out: MIC): 256 µg/mL (≈ 695 µM)
MIC ([6]; read-out: MIC): 256 µg/mL (≈ 695 µM)
MIC ([7]; read-out: MIC): 512 µg/mL (≈ 1390 µM)
MIC ([8]; read-out: MIC): 128 µg/mL (≈ 347 µM)
MIC ([9]; read-out: MIC): 128 µg/mL (≈ 347 µM)
SMILES: COc1cc(/C=C/C(=O)CC(=O)/C=C/c2ccc(O)c(OC)c2)ccc1O [Curcumin, curcumin]
MBC ([1]; read-out: MBC): ≥ 1020 µg/mL
MBC ([2]; read-out: MBC): ≥ 1020 µg/mL
MBC ([3]; read-out: MBC): ≥ 1020 µg/mL
MBC ([4]; read-out: MBC): ≥ 1020 µg/mL
MBC ([5]; ATCC25922, read-out: MBC): ≥ 1020 µg/mL
MBC ([6]; ATCC700603, read-out: MBC): ≥ 1020 µg/mL
MBC ([7]; ATCC25619, read-out: MBC): ≥ 1020 µg/mL
MBC ([8]; ATCC29213, read-out: MBC): ≥ 1020 µg/mL
MBC ([9]; ATCC35984, read-out: MBC): ≥ 1020 µg/mL
right shifting of the population, DPH (Klebsiella pneumoniae [10]): significant right shifting
right shifting of the population, DiSC3-5 (Klebsiella pneumoniae [11]): 35%

MIC ([5]; read-out: MIC): 0.25 µg/mL (≈ 0.754 µM)
MIC ([6]; read-out: MIC): 0.5 µg/mL (≈ 1.51 µM)
MIC ([7]; read-out: MIC): 0.5 µg/mL (≈ 1.51 µM)
MIC ([8]; read-out: MIC): 0.25 µg/mL (≈ 0.754 µM)
MIC ([9]; read-out: MIC): < 0.25 µg/mL
MIC ([12]; MDR isolates, antibiotics alone, read-out: MIC): 64 µg/mL (≈ 193 µM)
SMILES: O=C(O)c1cn(C2CC2)c2cc(N3CCNCC3)c(F)cc2c1=O [Ciprofloxacin, ciprofloxacin]
MBC ([1]; read-out: MBC): 64 µg/mL (≈ 193 µM)
MBC ([2]; read-out: MBC): 128 µg/mL (≈ 386 µM)
MBC ([3]; read-out: MBC): 256 µg/mL (≈ 773 µM)
MBC ([4]; read-out: MBC): 64 µg/mL (≈ 193 µM)
MBC ([5]; ATCC25922, read-out: MBC): 0.5 µg/mL (≈ 1.51 µM)
MBC ([6]; ATCC700603, read-out: MBC): 1 µg/mL (≈ 3.02 µM)
MBC ([7]; ATCC25619, read-out: MBC): 1 µg/mL (≈ 3.02 µM)
MBC ([8]; ATCC29213, read-out: MBC): 0.5 µg/mL (≈ 1.51 µM)
MBC ([9]; ATCC35984, read-out: MBC): 0.5 µg/mL (≈ 1.51 µM)

MIC ([1]; read-out: MIC): 64 µg/mL (≈ 167 µM)
MIC ([5]; read-out: MIC): 0.25 µg/mL (≈ 0.652 µM)
MIC ([6]; read-out: MIC): 0.5 µg/mL (≈ 1.3 µM)
MIC ([7]; read-out: MIC): 0.5 µg/mL (≈ 1.3 µM)
modified MIC [13, 21]: 64 µg/mL
modified MIC ([13]; antibiotic with sCur (8 µg/ml)): 1 µg/mL
modified MIC ([14]; antibiotic with sCur (8 µg/ml)): 2 µg/mL
modified MIC ([15]; antibiotic with sCur (8 µg/ml)): 4 µg/mL
SMILES: C[C@@H](O)[C@H]1C(=O)N2C(C(=O)O)=C(S[C@@H]3CN[C@H](C(=O)N(C)C)C3)[C@H](C)[C@H]12 [Meropenem, meropenem]
MBC ([2]; read-out: MBC): 256 µg/mL (≈ 668 µM)
MBC ([3]; read-out: MBC): 256 µg/mL (≈ 668 µM)
MBC ([5]; ATCC25922, read-out: MBC): 1 µg/mL (≈ 2.61 µM)
MBC ([6]; ATCC700603, read-out: MBC): 1 µg/mL (≈ 2.61 µM)
MBC ([7]; ATCC25619, read-out: MBC): 1 µg/mL (≈ 2.61 µM)

SMILES: CN[C@H](CC(C)C)C(=O)N[C@H]1C(=O)N[C@@H](CC(N)=O)C(=O)N[C@H]2C(=O)N[C@H]3C(=O)N[C@H](C(=O)N[C@H](C(=O)O)c4cc(O)cc(O)c4-c4cc3ccc4O)[C@H](O)c3ccc(c(Cl)c3)Oc3cc2cc(c3O[C@@H]2O[C@H](CO)[C@@H](O)[C@H](O)[C@H]2O[C@H]2C[C@](C)(N)[C@H](O)[C@H](C)O2)Oc2ccc(cc2Cl)[C@H]1O [Vancomycin, vancomycin]
MBC [1]: ≥ 1020 µg/mL
MIC [1]: 512 µg/mL (≈ 353 µM)
MBC [2]: ≥ 1020 µg/mL
MIC [2]: 512 µg/mL (≈ 353 µM)
MBC [3]: ≥ 1020 µg/mL
MIC [3]: 1020 µg/mL (≈ 707 µM)
MBC [4]: 2 µg/mL (≈ 1.38 µM)
MIC [4]: 1 µg/mL (≈ 0.69 µM)
MBC ([5]; ATCC25922): ≥ 1020 µg/mL
MIC [5]: 256 µg/mL (≈ 177 µM)
MBC ([6]; ATCC700603): ≥ 1020 µg/mL
MIC [6]: 256 µg/mL (≈ 177 µM)
MBC ([7]; ATCC25619): ≥ 1020 µg/mL
MIC [7]: 1020 µg/mL (≈ 707 µM)
MBC ([8]; ATCC29213): 2 µg/mL (≈ 1.38 µM)
MIC [8]: 0.5 µg/mL (≈ 0.345 µM)
MBC ([9]; ATCC35984): 1 µg/mL (≈ 0.69 µM)
MIC [9]: 0.25 µg/mL (≈ 0.173 µM)
MIC [12]: 512 µg/mL (≈ 353 µM)
MIC ([16]; read-out: Modified MIC): 1 µg/mL (≈ 0.69 µM)
MIC ([16]; read-out: modified MIC): 0.25 µg/mL (≈ 0.173 µM)
modified MIC [13, 21]: 512 µg/mL
modified MIC ([13]; antibiotic with sCur (8 µg/ml)): 8 µg/mL
modified MIC [14, 21]: 512 µg/mL
modified MIC ([14]; antibiotic with sCur (8 µg/ml)): 16 µg/mL
modified MIC [15, 21]: 1024 µg/mL
modified MIC ([15]; antibiotic with sCur (8 µg/ml)): 16 µg/mL
DPH fluorescence intensity [17]: 89.21 ± 2.614 a.u.
DPH fluorescence intensity (MRSA clinical isolate): 84.24 ± 1.875 a.u.
right shifting of the population, DPH (Klebsiella pneumoniae [10]): mild right shifting
DiSC3-5 fluorescence intensity [18]: 32.07 ± 5.224 a.u.
cell population that took up DCFDA, ROS generation (gate M3) (Klebsiella pneumoniae [19]): 38.6%
HPF fluorescence, OH radical production [20]: fair increase in the fluorescence
right shifting of the population, DiSC3-5 (Klebsiella pneumoniae [11]): 0.6%
